Results taken from US9975874B2, “Factor XIa inhibitors” (Merck Sharp & Dohme Corp., priority 2014, dated 2018).
Read-outs that look alike come from different tables or passages of the source.

What was measured:
[1] = target: purified Human plasma kallikrein (Homo sapiens (Human), UniProt P03952); assay: Kallikrein Assay; assay type: biochemical
Protocol: (§1) The effectiveness of a compound of the present invention as an inhibitor of Kallikrein can be determined using a relevant purified serine protease, and an appropriate synthetic substrate. The rate of hydrolysis of the chromogenic or fluorogenic substrate by the relevant serine protease was measured both in the absence and presence of compounds of the present invention. Assays were conducted at room temperature or at 37° C. […] A decrease in the rate of fluorescence change in the presence of inhibitor is indicative of enzyme inhibition. Such methods are known to one skilled in the art. The results of this assay are expressed as the inhibitory constant, Ki.
Kallikrein determinations were made in 50 mM HEPES buffer at pH 7.4 containing 150 mM NaCl, 5 mM CaCl2, and 0.1% PEG 8000 (polyethylene glycol; Fisher Scientific). Determinations were made using purified Human plasma kallikrein at a final concentration of 0.5 nM (Enzyme Research Laboratories) and the synthetic substrate, Acetyl-K-P-R-AFC (Sigma # C6608) at a concentration of […].
Times required to achieve equilibration between enzyme and inhibitor were determined in control experiments. The reactions were performed under linear progress curve conditions and fluorescence increase measured at 405 Ex/510 Em nm. […] IC50 was determined by inflection point from a four parameter logistic curve fit. Ki was calculated using the Cheng Prusoff equation, Ki=IC50/(1+([S]/Km)).

[2] = target: purified human Factor XIa (Homo sapiens (Human), UniProt P03951); assay: Factor XIa Assay; assay type: biochemical
Chain of purified human Factor XIa (P03951 388-625): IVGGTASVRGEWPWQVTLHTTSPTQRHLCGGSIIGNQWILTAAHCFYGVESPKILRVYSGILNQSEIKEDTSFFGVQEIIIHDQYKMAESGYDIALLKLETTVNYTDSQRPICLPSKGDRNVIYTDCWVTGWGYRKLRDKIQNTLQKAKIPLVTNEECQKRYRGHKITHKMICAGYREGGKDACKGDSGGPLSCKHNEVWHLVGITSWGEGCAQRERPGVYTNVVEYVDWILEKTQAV
Chain of purified human Factor XIa (P03951 19-387 partner): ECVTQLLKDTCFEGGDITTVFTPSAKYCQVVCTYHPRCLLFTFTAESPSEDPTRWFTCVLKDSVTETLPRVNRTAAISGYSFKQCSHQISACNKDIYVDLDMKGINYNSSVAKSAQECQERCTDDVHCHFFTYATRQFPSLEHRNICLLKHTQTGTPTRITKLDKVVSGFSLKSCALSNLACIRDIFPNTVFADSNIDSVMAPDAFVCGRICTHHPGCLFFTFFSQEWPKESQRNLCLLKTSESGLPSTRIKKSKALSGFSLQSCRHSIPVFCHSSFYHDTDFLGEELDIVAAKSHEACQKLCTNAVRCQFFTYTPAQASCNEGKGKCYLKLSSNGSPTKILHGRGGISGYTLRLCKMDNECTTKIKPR
Protocol: as §1, with “Coagulation Factor XIa” for “Kallikrein”, “The results of this assay are expressed as the inhibitory constant, Ki.” left out
Factor XIa determinations were made in 50 mM HEPES buffer at pH 7.4 containing 150 mM NaCl, 5 mM CaCl2, and 0.1% PEG 8000 (polyethylene glycol; JT Baker or Fisher Scientific). Determinations were made using purified human Factor XIa at a final concentration of 40 pM (Sekisui Diagnostics) and the synthetic substrate, Z-Gly-Pro-Arg-AFC, TFA salt (Sigma #C0980) at a concentration of 100 μM.
Times required to achieve equilibration between enzyme and inhibitor were determined in control experiments. Initial velocities of product formation in the absence (Vo) or presence of inhibitor (Vi) were measured. Assuming competitive inhibition, and that unity is negligible compared Km/[S], [I]/e, and [I]/e (where [S], [I], and e respectively represent the total concentrations, of substrate, inhibitor and enzyme), the equilibrium constant (Ki) for dissociation of the inhibitor from the enzyme can be obtained from the dependence of Vo/Vi on [I] shown in the following equation.

[3] = Plasma kallikrein, substrate Acetyl-K-P-R-AFC, 0.5 nM enzyme, pH 7.4, read-out: PK IC50
[4] = substrate Z-Gly-Pro-Arg-AFC 100 μM, 40 pM enzyme, pH 7.4, read-out: FXIa IC50

Chain of purified Human plasma kallikrein (P03952 391-638): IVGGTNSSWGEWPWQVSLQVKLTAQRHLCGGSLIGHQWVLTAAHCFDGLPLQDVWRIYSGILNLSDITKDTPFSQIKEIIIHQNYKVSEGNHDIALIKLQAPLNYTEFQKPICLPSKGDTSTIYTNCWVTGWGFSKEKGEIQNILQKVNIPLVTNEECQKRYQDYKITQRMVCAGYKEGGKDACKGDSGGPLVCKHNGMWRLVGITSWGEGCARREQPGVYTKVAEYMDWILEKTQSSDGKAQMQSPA
Chain of purified Human plasma kallikrein (P03952 20-390 partner): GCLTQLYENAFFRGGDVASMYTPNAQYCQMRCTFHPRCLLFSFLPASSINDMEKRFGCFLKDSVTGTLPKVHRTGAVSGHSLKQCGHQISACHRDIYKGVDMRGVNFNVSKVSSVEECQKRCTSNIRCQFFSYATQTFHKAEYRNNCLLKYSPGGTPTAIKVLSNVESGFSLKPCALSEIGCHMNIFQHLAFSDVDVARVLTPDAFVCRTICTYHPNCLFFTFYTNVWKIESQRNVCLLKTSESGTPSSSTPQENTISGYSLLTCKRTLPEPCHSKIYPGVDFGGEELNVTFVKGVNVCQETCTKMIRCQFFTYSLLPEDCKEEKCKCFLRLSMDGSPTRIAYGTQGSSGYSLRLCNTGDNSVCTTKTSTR

Row | SMILES | IC50 [1, 3] | IC50 [2, 4] | IC50 [1] | IC50 [2]
1 | O=C(O)c1cccc(-c2cccc([C@@H](Cc3ccccc3)c3ccc(-c4cc(Cl)ccc4-n4cnnn4)c[n+]3[O-])c2)c1 (stereo in doubt) [Example 8, 2-(1-(3′-carboxy-[1,1′-biphenyl]-3-yl)-2-phenylethyl)-5-(5-chloro-2-(1H-tetrazol-1-yl)phenyl)pyridine 1-oxide] | 6920 nM | 41 nM | – | –
2 | CS(=O)(=O)c1ccc(-c2cccc(C(Cc3ccccc3)c3ccc(-c4cc(Cl)ccc4-n4cnnn4)c[n+]3[O-])c2)cc1 (stereo not shown) [Example 4] | 4660 nM | 38.9 nM | – | –
3 | CS(=O)(=O)c1ccc(-c2cccc([C@H](Cc3ccccc3)c3ccc(-c4cc(Cl)ccc4-n4cnnn4)c[n+]3[O-])c2)cc1 [Example 6] | 1110 nM | 31.1 nM | – | –
4 | O=C(C1CC1(F)F)N1CCC(c2cccc([C@H](Cc3ccccc3)c3ccc(-c4cc(Cl)ccc4-n4cnnn4)c[n+]3[O-])c2)CC1 (stereo partly drawn) [Example 30, 5-[5-chloro-2-(1H-tetrazol-1-yl)phenyl]-2-[(1S)-1-(3-{1-[(2,2-difluoro-cyclopropyl)carbonyl]piperidin-4-yl}phenyl)-2-phenylethyl] pyridine 1-oxide] | 820 nM | 28.6 nM | – | –
5 | COCCC(=O)N1CCC(c2cccc([C@H](Cc3ccccc3)c3ccc(-c4cc(Cl)ccc4-n4cnnn4)c[n+]3[O-])c2)CC1 [Example 33, 5-[5-chloro-2-(1H-tetrazol-1-yl)phenyl]-2-[(1S)-1-{3-[1-(3-methoxy-propanoyl)piperidin-4-yl]phenyl}-2-phenylethyl] pyridine 1-oxide] | 376 nM | 11.2 nM | – | –
6 | O=C(C1CCO1)N1CCC(c2cccc([C@H](Cc3ccccc3)c3ccc(-c4cc(Cl)ccc4-n4cnnn4)c[n+]3[O-])c2)CC1 (stereo partly drawn) [Example 35, 5-[5-chloro-2-(1H-tetrazol-1-yl)phenyl]-2-[(1S)-1-{3-[1-(oxetan-2-ylcarbonyl)piperidin-4-yl]phenyl}-2-phenylethyl] pyridine 1-oxide] | 403 nM | 12.2 nM | – | –
7 | COCC(=O)N1CCC(c2cccc([C@H](Cc3ccccc3)c3ccc(-c4cc(Cl)ccc4-n4cnnn4)c[n+]3[O-])c2)CC1 [Example 36, 5-[5-chloro-2-(1H-tetrazol-1-yl)phenyl]-2-[(1S)-1-{3-[1-(methoxyacetyl)piperidin-4-yl]phenyl}-2-phenylethyl] pyridine 1-oxide] | 382 nM | 8.17 nM | – | –
8 | O=C(CF)N1CCC(c2cccc([C@H](Cc3ccccc3)c3ccc(-c4cc(Cl)ccc4-n4cnnn4)c[n+]3[O-])c2)CC1 [Example 38, 5-[5-chloro-2-(1H-tetrazol-1-yl)phenyl]-2-[(1S)-1-{3-[1-(fluoroacetyl)piperidin-4-yl]phenyl}-2-phenylethyl] pyridine 1-oxide] | – | – | 322 nM | 10.9 nM
9 | O=C(C1COC1)N1CCC(c2cccc([C@H](Cc3ccccc3)c3ccc(-c4cc(Cl)ccc4-n4cnnn4)c[n+]3[O-])c2)CC1 [Example 40] | 413 nM | 11.8 nM | – | –
10 | COCCOC(=O)N1CCC(c2cccc([C@H](Cc3ccccc3)c3ccc(-c4cc(Cl)ccc4-n4cnnn4)c[n+]3[O-])c2)CC1 [Example 45, 2-methoxyethyl 4-{3-[(1S)-1-{5-[5-chloro-2-(1H-tetrazol-1-yl)phenyl]-1-1-oxidopyridin-2-yl}-2-phenylethyl]phenyl} piperidine-1-carboxylate] | 659 nM | 43.9 nM | – | –
11 | O=C(NC1CCCC1)N1CCC(c2cccc([C@H](Cc3ccccc3)c3ccc(-c4cc(Cl)ccc4-n4cnnn4)c[n+]3[O-])c2)CC1 [Example 47, 4-{3-[(1S)-1-{5-[5-chloro-2-(1H-tetrazol-1-yl)phenyl]-1-oxidopyridin-2-yl}-2-phenylethyl]phenyl}-N-cyclopentyl piperidine-1-carboxamide] | 879 nM | 20.1 nM | – | –
12 | O=C(NC1CCOC1)N1CCC(c2cccc([C@H](Cc3ccccc3)c3ccc(-c4cc(Cl)ccc4-n4cnnn4)c[n+]3[O-])c2)CC1 (stereo partly drawn) [Example 49, 4-{3-[(1S)-1-{5-[5-chloro-2-(1H-tetrazol-1-yl)phenyl]-1-oxidopyridin-2-yl}-2-phenylethyl]phenyl}-N-(tetrahydrofuran-3-yl)piperidine-1-carboxamide] | 414 nM | 6.89 nM | – | –

Further molecules by falling IC50 [1, 3], results first:

Row | IC50 [1, 3] | IC50 [2, 4] | SMILES | IC50 [1] | IC50 [2]
13 | 371 nM | 10.6 nM | O=C(C1CC1)N1CCC(c2cccc([C@H](Cc3ccccc3)c3ccc(-c4cc(Cl)ccc4-n4cnnn4)c[n+]3[O-])c2)CC1 [Example 34, 5-[5-chloro-2-(1H-tetrazol-1-yl)phenyl]-2-[(1S)-1-{3-[1-(cyclopropyl-carbonyl)piperidin-4-yl]phenyl}-2-phenylethyl] pyridine 1-oxide] | – | –
14 | 336 nM | 10.8 nM | O=C(C1CCCO1)N1CCC(c2cccc([C@H](Cc3ccccc3)c3ccc(-c4cc(Cl)ccc4-n4cnnn4)c[n+]3[O-])c2)CC1 (stereo partly drawn) [Example 31, 5-[5-chloro-2-(1H-tetrazol-1-yl)phenyl]-2-[(1S)-2-phenyl-1-{3-[1-(tetrahydrofuran-2-ylcarbonyl)piperidin-4-yl]phenyl}ethyl] pyridine 1-oxide] | – | –
15 | 325 nM | 8.71 nM | COCCNC(=O)N1CCC(c2cccc([C@H](Cc3ccccc3)c3ccc(-c4cc(Cl)ccc4-n4cnnn4)c[n+]3[O-])c2)CC1 [Example 48, 4-{3-[(1s)-1-{5-[5-chloro-2-(1H-tetrazol-1-yl)phenyl]-1-oxidopyridin-2-yl}-2-phenylethyl]phenyl}-N-(2-methoxyethyl) piperidine-1-carboxamide] | – | –
16 | 324 nM | 11.1 nM | O=C1CC(C(=O)N2CCC(c3cccc([C@H](Cc4ccccc4)c4ccc(-c5cc(Cl)ccc5-n5cnnn5)c[n+]4[O-])c3)CC2)C1 [Example 32, 3-[(4-{3-[(1S)-1-{5-[5-chloro-2-(1H-tetrazol-1-yl)phenyl]-1-oxidopyridin-2-yl}-2-phenylethyl]phenyl}piperidin-1-yl)carbonyl] cyclobutanone] | – | –
17 | 271 nM | 7.25 nM | CCNC(=O)N1CCC(c2cccc([C@H](Cc3ccccc3)c3ccc(-c4cc(Cl)ccc4-n4cnnn4)c[n+]3[O-])c2)CC1 [Example 28, 4-{3-[(1S)-1-{5-[5-chloro-2-(1H-tetrazol-1-yl)phenyl]-1-oxidopyridin-2-yl}-2-phenylethyl]phenyl}-N-ethylpiperidine-1-carboxamide] | – | –
18 | 250 nM | 12 nM | O=C(O)c1cccc(-c2cccc(C(CC3CC3)c3ccc(-c4cc(Cl)ccc4-n4cnnn4)c[n+]3[O-])c2)c1 (stereo not shown) [Example 18] | – | –
19 | 178 nM | 3.34 nM | NC(=O)c1cccc(-c2cc(F)cc([C@H](Cc3ccccc3)c3ccc(-c4cc(Cl)ccc4-n4cnnn4)c[n+]3[O-])c2)c1 [Example 16] | – | –
20 | 113 nM | 9.95 nM | NC(=O)C(=O)N1CCC(c2cccc([C@H](Cc3ccccc3)c3ccc(-c4cc(Cl)ccc4-n4cnnn4)c[n+]3[O-])c2)CC1 [Example 39, 2-(4-{3-[(1S)-1-{5-[5-chloro-2-(1H-tetrazol-1-yl)phenyl]-1-oxidopyridin-2-yl}-2-phenylethyl]phenyl}piperidin-1-yl)-2-oxoacetamide] | – | –
21 | 34.3 nM | 2.07 nM | COC(=O)Nc1ccc(-c2cccc([C@H](Cc3ccccc3)c3ccc(-c4cc(Cl)ccc4-n4cnnn4)c[n+]3[O-])c2)cc1 [Example 3, (S)-5-(5-Chloro-2-(1H-tetrazol-1-yl)phenyl)-2-(1-(4′-((methoxycarbonyl)amino)-[1,1′-biphenyl]-3-yl)-2-phenylethyl)pyridine 1-oxide] | – | –
22 | 24.9 nM | 0.267 nM | O=C(O)c1cccc(-c2cccc([C@H](Cc3ccccc3)c3ccc(-c4cc(Cl)ccc4-n4cnnn4)c[n+]3[O-])c2)c1 (stereo in doubt) [Example 9, 2-(1-(3′-carboxy-[1,1′-biphenyl]-3-yl)-2-phenylethyl)-5-(5-chloro-2-(1H-tetrazol-1-yl)phenyl)pyridine 1-oxide] | – | –
23 | 19.1 nM | 0.301 nM | O=C(O)c1cccc(-c2cc(F)cc([C@H](Cc3ccccc3)c3ccc(-c4cc(Cl)ccc4-n4cnnn4)c[n+]3[O-])c2)c1 [Example 14] | – | –
